Experimental findings from patent US10947213B1 (Merck Patent GmbH, priority 2015, dated 2021) are described below.

Where a name gives a salt, the structure may show the parent alone.

This test deals with T1, TLR7/NFKb HEK cells (Homo sapiens, UniProt Q9NYK1).
T1 construct: expressed in transfected cells; host or cells: HEK cells (TLR7/NFKb reporter line)
T1 sequence (Q9NYK1 27-1049): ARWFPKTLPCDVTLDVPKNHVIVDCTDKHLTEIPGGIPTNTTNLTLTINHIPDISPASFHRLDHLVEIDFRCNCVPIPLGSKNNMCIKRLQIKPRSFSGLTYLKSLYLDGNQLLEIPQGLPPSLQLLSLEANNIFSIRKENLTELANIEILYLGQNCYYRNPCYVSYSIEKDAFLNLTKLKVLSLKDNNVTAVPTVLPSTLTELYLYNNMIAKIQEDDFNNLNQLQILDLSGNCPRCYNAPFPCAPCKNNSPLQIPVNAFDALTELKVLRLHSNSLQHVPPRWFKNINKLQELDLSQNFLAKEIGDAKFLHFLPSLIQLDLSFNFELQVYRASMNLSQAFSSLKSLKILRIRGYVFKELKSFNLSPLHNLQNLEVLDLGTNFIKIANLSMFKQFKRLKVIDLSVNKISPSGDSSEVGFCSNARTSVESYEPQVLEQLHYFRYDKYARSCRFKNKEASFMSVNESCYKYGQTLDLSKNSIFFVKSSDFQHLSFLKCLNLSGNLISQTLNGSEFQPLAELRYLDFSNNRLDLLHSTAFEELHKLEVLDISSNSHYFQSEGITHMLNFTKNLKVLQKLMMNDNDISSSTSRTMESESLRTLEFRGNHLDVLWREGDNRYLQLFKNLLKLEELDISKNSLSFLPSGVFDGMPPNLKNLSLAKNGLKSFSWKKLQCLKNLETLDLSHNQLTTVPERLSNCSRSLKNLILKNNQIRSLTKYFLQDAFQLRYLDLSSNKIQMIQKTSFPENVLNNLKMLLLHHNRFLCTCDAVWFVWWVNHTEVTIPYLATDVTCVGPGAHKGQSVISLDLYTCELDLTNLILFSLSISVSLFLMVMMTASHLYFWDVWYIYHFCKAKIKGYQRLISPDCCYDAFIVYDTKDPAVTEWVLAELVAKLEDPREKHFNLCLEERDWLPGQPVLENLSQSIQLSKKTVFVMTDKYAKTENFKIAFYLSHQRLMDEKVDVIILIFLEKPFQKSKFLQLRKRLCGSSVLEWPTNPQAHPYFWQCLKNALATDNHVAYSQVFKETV
As to the kind of experiment: HEK Cell Assay (TLR7/NFKb reporter, Steady-Glo luciferase readout). Type of test: cell-based. To be noted: 30 min compound preincubation, then R*48 agonist for 5 hours, read-out: Potency. The method, boiled down: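 Steady-Glo luminescence after 5 h stimulation with R*48 agonist, following 30 min compound preincubation. Assay run in HEK cells carrying a TLR7/NFKb luciferase reporter, plated at 5000 cells/well and grown 24 h at 37° C (10% CO2) before treatment.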
For the compound `N#Cc1ccc(N2C[C@H](N)C[C@H](F)C2)c2nccnc12` [Compound 499, 8-((3R,5S)-3-Amino-5-fluoro-piperidin-1-yl)-quinoxaline-5-carbonitrile hydrochloride], the IC50 was 1000 to 10000 nM.
The figure for `C[C@H]1C[C@@H](NC(=O)C2CCCN2C)CN(c2ccc(C#N)c3nccnc23)C1` (stereo partly drawn) [Compound 171, N-[(3R,5S)-1-(8-cyanoquinoxalin-5-yl)-5-methylpiperidin-3-yl]-1-methylpyrrolidine-2-carboxamide] is under 1000 nM.
For the compound `Cc1c(F)cc(N2C[C@@H](C)C[C@@H](N)C2)c2cccnc12` [Compound 488, (3R,5S)-1-(7-Fluoro-8-methyl-quinolin-5-yl)-5-methyl-piperidin-3-ylamine hydrochloride], the IC50 is under 1000 nM.
The figure for `C[C@H]1C[C@@H](NC(=O)CC2CCN(CC(F)F)CC2)CN(c2ccc(C(F)(F)F)c3nccnc23)C1` [Compound 256, 2-[1-(2,2-difluoroethyl)piperidin-4-yl]-N-[(3R,5S)-5-methyl-1-[8-(trifluoromethyl)quinoxalin-5-yl]piperidin-3-yl]acetamide] is under 1000 nM; for `N#Cc1ccc(N2CC(NC(=O)C(N)C(F)(F)F)CC(C3CC3)C2)c2nccnc12` (single isomer, unassigned) [Compound 178] it is 1000 to 10000 nM; for `CCN(C)CCNC(=O)C1CCN(c2ccc(C(F)(F)F)c3ncccc23)CC1` [Compound 436, 1-(8-Trifluoromethyl-quinolin-5-yl)-piperidine-4-carboxylic acid [2-(ethyl-methyl-amino)-ethyl]-amide] it is under 1000 nM.
For `C[C@H]1C[C@@H](NC(=O)CC2CCN(C)C2)CN(c2ccc(C(F)(F)F)c3ncccc23)C1` (stereo partly drawn) [Compound 283, N-[(3R,5S)-5-methyl-1-[8-(trifluoromethyl)quinolin-5-yl]piperidin-3-yl]-2-(1-methylpyrrolidin-3-yl)acetamide hydrochloride], the IC50 is under 1000 nM.
Take `N#Cc1ccc(N2CC(NC(=O)CCC(=O)N3CCC3)CC(C(F)(F)F)C2)c2cccnc12` (single isomer, unassigned) [Compound 494]: the IC50 was over 10000 nM.
In the case of `C[C@H]1C[C@@H](NC(=O)CC(C)(C)O)CN(c2ccc(C(F)(F)F)c3ncccc23)C1` [Compound 485], the IC50 is under 1000 nM.
In the case of `CN1CCC(NC2CC(C(F)(F)F)CN(c3ccc(C#N)c4nccnc34)C2)C1=O` (single isomer, unassigned) [Compound 225] it was 1000 to 10000 nM; in that of `C[C@H]1C[C@@H](NC(=O)CC2CCCN(C)C2)CN(c2ccc(C(F)(F)F)c3nccnc23)C1` (stereo partly drawn) [Compound 293, N-[(3R,5S)-5-methyl-1-[8-(trifluoromethyl)quinoxalin-5-yl]piperidin-3-yl]-2-(1-methylpiperidin-3-yl)acetamide], under 1000 nM.
In the case of `CCN(CC)CC(=O)NCC1CCN(c2ccc(C(F)(F)F)c3ncccc23)CC1` [Compound 443, 2-Diethylamino-N-[1-(8-trifluoromethyl-quinolin-5-yl)-piperidin-4-ylmethyl]-acetamide] it was under 1000 nM.
On to `C[C@H]1C[C@@H](NC(=O)C2CCCN2C)CN(c2ccnc3nccnc23)C1` (stereo partly drawn) [Compound 172, Methyl-N-[(3R,5S)-5-methyl-1-[pyrido[2,3-b]pyrazin-8-yl]piperidin-3-yl]pyrrolidine-2-carboxamide], for which the IC50 fell in the range of 1000 to 10000 nM.
In the case of `CCC(C)C(=O)N[C@@H]1C[C@H](C)CN(c2ccc(C#N)c3nccnc23)C1` (single isomer, unassigned) [Compound 154] it was under 1000 nM; in that of `N#Cc1ccc(N2CCC(C(=O)NCCN3CCC(F)(F)CC3)CC2)c2cccnc12` [Compound 427, 1-(8-Cyano-quinolin-5-yl)-piperidine-4-carboxylic Acid [2-(4,4-difluoro-piperidin-1-yl)-ethyl]-amide], 1000 to 10000 nM; in that of `CN1CCN(C(=O)CCC(=O)N[C@H]2C[C@@H](C(F)(F)F)CN(c3ccc(C#N)c4ncccc34)C2)CC1` (racemic) [Compound 496, cis-N—[-1-(8-Cyano-quinolin-5-yl)-5-trifluoromethyl-piperidin-3-yl]-4-(4-methyl-piperazin-1-yl)-4-oxo-butyramide], under 1000 nM.
The figure for `C[C@H]1C[C@@H](NC(=O)CN2CCC(C)(C)C2)CN(c2ccc(C(F)(F)F)c3ncccc23)C1` [Compound 573, 2-(3,3-Dimethyl-pyrrolidin-1-yl)-N-[(3R,5S)-5-methyl-1-(8-trifluoromethyl-quinolin-5-yl)-piperidin-3-yl]-acetamide] is under 1000 nM; for `C[C@H]1C[C@@H](NC(=O)CN(C)C)CN(c2ccc(Cl)c3ncccc23)C1` [Compound 264, N-[(3R,5S)-1-(8-chloroquinolin-5-yl)-5-methylpiperidin-3-yl]-2-(dimethylamino)acetamide] it is under 1000 nM; for `CCN(C)[C@H](C)C(=O)N[C@@H]1C[C@H](C)CN(c2ccnc3nccnc23)C1` [Compound 100, (2R)-2-[ethyl(methyl)amino]-N-[(3R,5S)-5-methyl-1-[pyrido[2,3-b]pyrazin-8-yl]piperidin-3-yl]propanamide] it is 1000 to 10000 nM.
The figure for `C[C@H]1C[C@@H](NC(=O)CC(C)(C)C)CN(c2ccc(C(F)F)c3ncccc23)C1` [Compound 205, N-[(3R,5S)-1-[8-(difluoromethyl)quinolin-5-yl]-5-methylpiperidin-3-yl]-3,3-dimethylbutanamide] is under 1000 nM; for `C[C@H]1C[C@@H](NC(=O)C2(CO)CC2)CN(c2ccc(C#N)c3nccnc23)C1` [Compound 162, N-[(3R,5S)-1-(8-cyanoquinoxalin-5-yl)-5-methylpiperidin-3-yl]-1-(hydroxymethyl)cyclopropane-1-carboxamide] it is 1000 to 10000 nM; for `C[C@H]1C[C@@H](NC(=O)CN(C)C)CN(c2ccc(C#N)c3ncncc23)C1` [Compound 447, N-[(3R,5S)-1-(8-Cyano-quinazolin-5-yl)-5-methyl-piperidin-3-yl]-2-dimethylamino-acetamide] it is under 1000 nM.
Regarding `C[C@H]1C[C@@H](NC(=O)CC2(N)CCCCC2)CN(c2ccc(C(F)(F)F)c3ncccc23)C1` [Compound 483, 2-(1-Amino-cyclohexyl)-N-[(3R,5S)-5-methyl-1-(8-trifluoromethyl-quinolin-5-yl)-piperidin-3-yl]-acetamide], the IC50 was under 1000 nM.
In the case of `C[C@H]1C[C@@H](NC(=O)C2CCN(C)C2)CN(c2ccc(C(F)(F)F)c3ncccc23)C1` (stereo partly drawn) [Compound 248, 1-methyl-N-[(3R,5S)-5-methyl-1-[8-(trifluoromethyl)quinolin-5-yl]piperidin-3-yl]pyrrolidine-3-carboxamide] it was under 1000 nM; in that of `C[C@H]1C[C@@H](NC2CCC(O)CC2)CN(c2ccc(C#N)c3nccnc23)C1` (single isomer, unassigned) [Compound 136], under 1000 nM.
The figure for `C[C@H]1C[C@@H](NC(=O)COC(C)(C)C)CN(c2ccnc3nccnc23)C1` [Compound 164, 2-(tert-butoxy)-N-[(3R,5S)-5-methyl-1-[pyrido[2,3-b]pyrazin-8-yl]piperidin-3-yl]acetamide] is over 10000 nM; for `COC(C)C(=O)N[C@@H]1C[C@H](C)CN(c2ccc(C#N)c3nccnc23)C1` (single isomer, unassigned) [Compound 158] it is 1000 to 10000 nM; for `CCN(CC)CCNCC1CCN(c2ccnc3ccc(C)cc23)CC1` [Compound 384, N,N-Diethyl-N′-[1-(6-methyl-quinolin-4-yl)-piperidin-4-ylmethyl]-ethane-1,2-diamine] it is 1000 to 10000 nM.
In the case of `C[C@H]1C[C@@H](NC(=O)CNS(C)(=O)=O)CN(c2ccnc3nccnc23)C1` [Compound 141, 2-methanesulfonamido-N-[(3R,5S)-5-methyl-1-[pyrido[2,3-b]pyrazin-8-yl]piperidin-3-yl]acetamide] it was over 10000 nM.
With `C[C@H]1C[C@@H](NC(=O)CC2(C)CCN(C)CC2)CN(c2ccc(C(F)(F)F)c3nccnc23)C1` [Compound 255, 2-(1,4-dimethylpiperidin-4-yl)-N-[(3R,5S)-5-methyl-1-[8-(trifluoromethyl)quinoxalin-5-yl]piperidin-3-yl]acetamide], the IC50 was under 1000 nM.
The figure for `CC1(C)C[C@@H](N)CN(c2ccnc3nccnc23)C1` [Compound 80, (R)-5,5-dimethyl-1-(pyrido[2,3-b]pyrazin-8-yl)piperidin-3-amine] is 1000 to 10000 nM.
